Results as given in ChEMBL document CHEMBL4229354, “Synthesis, antiamoebic activity and docking studies of metronidazole-triazole-styryl hybrids” (Eur J Med Chem, 2018).

Tests used:
Entamoeba histolytica = test: Antiamoebic activity against trophozoite stage of Entamoeba histolytica HM-1:IMSS measured after 72 hrs by microdilution method; format: functional, organism-based
Vero = test: Cytotoxicity against African green monkey Vero cells up to 50 uM; format: cell-based; settings: chlorocebus sabaeus

Compound	IC50 (Entamoeba histolytica)	Activity (Vero)
O=[N+]([O-])c1cnc(/C=C/c2ccc(Cl)cc2)n1CCn1cc(-c2ccccn2)nn1	290 nM	Non-Toxic
CCc1ccc(/C=C/c2ncc([N+](=O)[O-])n2CCn2cc(CO)nn2)cc1	4180 nM	–
O=[N+]([O-])c1cnc(/C=C/c2ccccc2)n1CCn1cc(-c2ccccn2)nn1	5130 nM	–
O=[N+]([O-])c1cnc(/C=C/c2ccc(Br)cc2)n1CCn1cc(COc2ccccc2)nn1	1680 nM	–
O=[N+]([O-])c1cnc(/C=C/c2ccccc2)n1CCn1cc(-c2ccccc2)nn1	1350 nM	Non-Toxic
O=[N+]([O-])c1cnc(/C=C/c2ccc(F)cc2)n1CCn1cc(-c2ccccc2)nn1	120 nM	Non-Toxic
Cc1ccc(/C=C/c2ncc([N+](=O)[O-])n2CCn2cc(COc3ccccc3)nn2)cc1	5380 nM	–
CCc1ccc(/C=C/c2ncc([N+](=O)[O-])n2CCn2cc(-c3ccccc3)nn2)cc1	4680 nM	–
O=[N+]([O-])c1cnc(/C=C/c2ccc(Br)cc2)n1CCn1cc(CO)nn1	1650 nM	–
O=[N+]([O-])c1cnc(/C=C/c2ccc(F)cc2)n1CCn1cc(CO)nn1	180 nM	Non-Toxic
O=[N+]([O-])c1cnc(/C=C/c2ccccc2)n1CCn1cc(CO)nn1	1120 nM	Non-Toxic
O=[N+]([O-])c1cnc(/C=C/c2ccc(Br)cc2)n1CCn1cc(-c2ccccc2)nn1	1770 nM	–
O=[N+]([O-])c1cnc(/C=C/c2ccc(Br)cc2)n1CCn1cc(-c2ccccn2)nn1	1100 nM	Non-Toxic

More lines, in order of falling IC50 (Entamoeba histolytica), values ahead:

IC50 (Entamoeba histolytica)	Compound	Activity (Vero)
6010 nM	Cc1ccc(/C=C/c2ncc([N+](=O)[O-])n2CCn2cc(-c3ccccn3)nn2)cc1	–
3560 nM	O=[N+]([O-])c1cnc(/C=C/c2ccccc2)n1CCn1cc(COc2ccccc2)nn1	–
2510 nM	Cc1ccc(/C=C/c2ncc([N+](=O)[O-])n2CCn2cc(-c3ccccc3)nn2)cc1	–
2130 nM	Cc1ccc(/C=C/c2ncc([N+](=O)[O-])n2CCn2cc(CO)nn2)cc1	–
1220 nM	O=[N+]([O-])c1cnc(/C=C/c2ccc(Cl)cc2)n1CCn1cc(-c2ccccc2)nn1	Non-Toxic
1110 nM	O=[N+]([O-])c1cnc(/C=C/c2ccc(Cl)cc2)n1CCn1cc(CO)nn1	Non-Toxic
350 nM	O=[N+]([O-])c1cnc(/C=C/c2ccc(Cl)cc2)n1CCn1cc(COc2ccccc2)nn1	Non-Toxic
280 nM	O=[N+]([O-])c1cnc(/C=C/c2ccc(F)cc2)n1CCn1cc(COc2ccccc2)nn1	Non-Toxic
130 nM	O=[N+]([O-])c1cnc(/C=C/c2ccc(F)cc2)n1CCn1cc(-c2ccccn2)nn1	Non-Toxic
